Test system: 317291-083-R-J1-PDC complex spheroid growth
Experiment: Anticancer human tumor 317291-083-R-J1-PDC patient-derived soft tissue sarcoma cell line growth inhibition [Asc]
Conditions: for IC50: curve of first compound; for viability, T/C: stronger effect = lower value; active means viability on the fitted dose curve at most 10% of control; inactive means the rest
Procedure, shortened: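 Complex solid-tumor spheroids incorporating human endothelial and mesenchymal stem cells received single agents or combinations over half-log dilution ranges anchored to clinical Cmax.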

[1] = second compound 0.00316 µM, first compound 0.00316 µM
[2] = second compound 0.00316 µM, first compound 0.01 µM
[3] = second compound 0.00316 µM, first compound 0.0316 µM
[4] = second compound 0.00316 µM, first compound 0.1 µM
[5] = second compound 0.01 µM, first compound 0.00316 µM
[6] = second compound 0.01 µM, first compound 0.01 µM
[7] = second compound 0.01 µM, first compound 0.0316 µM
[8] = second compound 0.01 µM, first compound 0.1 µM
[9] = second compound 0.0316 µM, first compound 0.00316 µM
[10] = second compound 0.0316 µM, first compound 0.01 µM
[11] = second compound 0.0316 µM, first compound 0.0316 µM
[12] = second compound 0.0316 µM, first compound 0.1 µM
[13] = second compound 0.1 µM, first compound 0.00316 µM
[14] = second compound 0.1 µM, first compound 0.01 µM
[15] = second compound 0.1 µM, first compound 0.0316 µM
[16] = second compound 0.1 µM, first compound 0.1 µM
[17] = second compound 0.316 µM, first compound 0.00316 µM
[18] = second compound 0.316 µM, first compound 0.01 µM
[19] = second compound 0.316 µM, first compound 0.0316 µM
[20] = second compound 0.316 µM, first compound 0.1 µM
[21] = second compound 1 µM, first compound 0.00316 µM
[22] = second compound 1 µM, first compound 0.01 µM
[23] = second compound 1 µM, first compound 0.0316 µM
[24] = second compound 1 µM, first compound 0.1 µM
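Further: compound exposure lasted seven days after spheroids formed for three days.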
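Wherever viability, T/C is given: 100% = DMSO vehicle control wells.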

COc1c(OCCCN2CCOCC2)ccc2c3n(c(=NC(=O)c4cnc(N)nc4)nc12)CCN3 + CNC(C)C(=O)NC1CN(S(=O)(=O)c2cccc(S(=O)(=O)N3CCC4CCC(C(=O)NC(c5ccccc5)c5ccccc5)N4C(=O)C(NC(=O)C(C)NC)C3)c2)CCC2CCC(C(=O)NC(c3ccccc3)c3ccccc3)N2C1=O
inactive: viability, T/C [1] 80.1% | viability, T/C [2] 81% | viability, T/C [3] 68.1% | viability, T/C [4] 43.5% | viability, T/C (second compound 0.00316 µM, first compound 0.316 µM) 28.3% | viability, T/C (second compound 0.00316 µM, first compound 1 µM) 15.5% | viability, T/C [5] 72.6% | viability, T/C [6] 103% | viability, T/C [7] 61.4% | viability, T/C [8] 42.6% | viability, T/C (second compound 0.01 µM, first compound 0.316 µM) 22.7% | viability, T/C (second compound 0.01 µM, first compound 1 µM) 13.3% | viability, T/C [9] 76.5% | viability, T/C [10] 73.2% | viability, T/C [11] 77% | viability, T/C [12] 37.7% | viability, T/C (second compound 0.0316 µM, first compound 0.316 µM) 18.2% | viability, T/C (second compound 0.0316 µM, first compound 1 µM) 11% | viability, T/C [13] 53.8% | viability, T/C [14] 44.8% | viability, T/C [15] 38.9% | viability, T/C [16] 34.2% | viability, T/C (second compound 0.1 µM, first compound 0.316 µM) 16.9% | viability, T/C [17] 56% | viability, T/C [18] 44.4% | viability, T/C [19] 68.8% | viability, T/C [20] 32.3% | viability, T/C (second compound 0.316 µM, first compound 0.316 µM) 13.8% | viability, T/C (second compound 0.316 µM, first compound 1 µM) 11% | viability, T/C [21] 33.2% | viability, T/C [22] 36% | viability, T/C [23] 27.2% | viability, T/C [24] 19.2% | viability, T/C (second compound 1 µM, first compound 0.316 µM) 9.14%
68.4 nM: IC50 (second compound 0.01 µM)
68.7 nM: IC50 (second compound 0.0316 µM)
79.4 nM: IC50 (second compound 0.00316 µM)
active: viability, T/C (second compound 0.1 µM, first compound 1 µM) 10.7% | viability, T/C (second compound 1 µM, first compound 1 µM) 5.37%
< 3.16 nM: IC50 (second compound 1 µM)
43 nM: IC50 (second compound 0.316 µM)
5.31 nM: IC50 (second compound 0.1 µM)

NC(=O)C(=Cn1cnc(-c2cc(C(F)(F)F)cc(C(F)(F)F)c2)n1)c1cncnc1 + CNC(C)C(=O)NC1CN(S(=O)(=O)c2cccc(S(=O)(=O)N3CCC4CCC(C(=O)NC(c5ccccc5)c5ccccc5)N4C(=O)C(NC(=O)C(C)NC)C3)c2)CCC2CCC(C(=O)NC(c3ccccc3)c3ccccc3)N2C1=O
inactive: viability, T/C (second compound 0.00316 µM, first compound 0.000949 µM) 75.5% | viability, T/C (second compound 0.00316 µM, first compound 0.003 µM) 72.6% | viability, T/C (second compound 0.00316 µM, first compound 0.00949 µM) 47.7% | viability, T/C (second compound 0.00316 µM, first compound 0.03 µM) 32.1% | viability, T/C (second compound 0.01 µM, first compound 0.000949 µM) 105% | viability, T/C (second compound 0.01 µM, first compound 0.003 µM) 96.1% | viability, T/C (second compound 0.01 µM, first compound 0.00949 µM) 74.5% | viability, T/C (second compound 0.01 µM, first compound 0.03 µM) 29.3% | viability, T/C (second compound 0.0316 µM, first compound 0.000949 µM) 101% | viability, T/C (second compound 0.0316 µM, first compound 0.003 µM) 92.5% | viability, T/C (second compound 0.0316 µM, first compound 0.00949 µM) 75.6% | viability, T/C (second compound 0.0316 µM, first compound 0.03 µM) 39.5% | viability, T/C (second compound 0.1 µM, first compound 0.000949 µM) 74.4% | viability, T/C (second compound 0.1 µM, first compound 0.003 µM) 73% | viability, T/C (second compound 0.1 µM, first compound 0.00949 µM) 45.3% | viability, T/C (second compound 0.1 µM, first compound 0.03 µM) 16.6% | viability, T/C (second compound 0.316 µM, first compound 0.000949 µM) 63.2% | viability, T/C (second compound 0.316 µM, first compound 0.003 µM) 68.2% | viability, T/C (second compound 0.316 µM, first compound 0.00949 µM) 60.1% | viability, T/C (second compound 0.316 µM, first compound 0.03 µM) 16.1% | viability, T/C (second compound 1 µM, first compound 0.000949 µM) 67.3% | viability, T/C (second compound 1 µM, first compound 0.003 µM) 38.9% | viability, T/C (second compound 1 µM, first compound 0.00949 µM) 34.8% | viability, T/C (second compound 1 µM, first compound 0.03 µM) 12.6%
10.4 nM: IC50 (second compound 0.00316 µM)
8.13 nM: IC50 (second compound 0.1 µM)
17.5 nM: IC50 (second compound 0.01 µM)
12.4 nM: IC50 (second compound 0.316 µM)
2.22 nM: IC50 (second compound 1 µM)
20.6 nM: IC50 (second compound 0.0316 µM)
active: viability, T/C (second compound 0.00316 µM, first compound 0.0949 µM) 5.77% | viability, T/C (second compound 0.00316 µM, first compound 0.3 µM) 2.39% | viability, T/C (second compound 0.01 µM, first compound 0.0949 µM) 4.51% | viability, T/C (second compound 0.01 µM, first compound 0.3 µM) 2.62% | viability, T/C (second compound 0.0316 µM, first compound 0.0949 µM) 4.33% | viability, T/C (second compound 0.0316 µM, first compound 0.3 µM) 1.8% | viability, T/C (second compound 0.1 µM, first compound 0.0949 µM) 3.12% | viability, T/C (second compound 0.1 µM, first compound 0.3 µM) 1.09% | viability, T/C (second compound 0.316 µM, first compound 0.0949 µM) 1.31% | viability, T/C (second compound 0.316 µM, first compound 0.3 µM) 2.22% | viability, T/C (second compound 1 µM, first compound 0.0949 µM) 2.47% | viability, T/C (second compound 1 µM, first compound 0.3 µM) 1.44%

NC1CCC(NC2CC2c2ccccc2)CC1 (stereo unspecified) + CNC(C)C(=O)NC1CN(S(=O)(=O)c2cccc(S(=O)(=O)N3CCC4CCC(C(=O)NC(c5ccccc5)c5ccccc5)N4C(=O)C(NC(=O)C(C)NC)C3)c2)CCC2CCC(C(=O)NC(c3ccccc3)c3ccccc3)N2C1=O
> 100 nM: IC50 (second compound 0.00316 µM) | IC50 (second compound 0.01 µM) | IC50 (second compound 0.0316 µM) | IC50 (second compound 0.1 µM)
inactive: viability, T/C (second compound 0.00316 µM, first compound 0.000316 µM) 83.2% | viability, T/C (second compound 0.00316 µM, first compound 0.001 µM) 88.8% | viability, T/C [1] 84.5% | viability, T/C [2] 96% | viability, T/C [3] 80.5% | viability, T/C [4] 74.5% | viability, T/C (second compound 0.01 µM, first compound 0.000316 µM) 93% | viability, T/C (second compound 0.01 µM, first compound 0.001 µM) 80.6% | viability, T/C [5] 86.9% | viability, T/C [6] 93.7% | viability, T/C [7] 82.3% | viability, T/C [8] 76.7% | viability, T/C (second compound 0.0316 µM, first compound 0.000316 µM) 102% | viability, T/C (second compound 0.0316 µM, first compound 0.001 µM) 73.7% | viability, T/C [9] 77% | viability, T/C [10] 70.1% | viability, T/C [11] 89.5% | viability, T/C [12] 57.4% | viability, T/C (second compound 0.1 µM, first compound 0.000316 µM) 67.5% | viability, T/C (second compound 0.1 µM, first compound 0.001 µM) 52% | viability, T/C [13] 69.1% | viability, T/C [14] 49% | viability, T/C [15] 69.3% | viability, T/C [16] 64.7% | viability, T/C (second compound 0.316 µM, first compound 0.000316 µM) 43.2% | viability, T/C (second compound 0.316 µM, first compound 0.001 µM) 56.5% | viability, T/C [17] 48% | viability, T/C [18] 54% | viability, T/C [19] 61.9% | viability, T/C [20] 44% | viability, T/C (second compound 1 µM, first compound 0.000316 µM) 37.5% | viability, T/C (second compound 1 µM, first compound 0.001 µM) 39.7% | viability, T/C [21] 34.5% | viability, T/C [22] 36.8% | viability, T/C [23] 46.1% | viability, T/C [24] 36.8%
< 0.316 nM: IC50 (second compound 0.316 µM) | IC50 (second compound 1 µM)

Source: PubChem BioAssay AID1963427 (Molecular Pharmacology Branch, DTP, NCI, 2024)
